Data published in patent US6716829B2, “Aldosterone antagonist and cyclooxygenase-2 inhibitor combination therapy to prevent or treat inflammation-related cardiovascular disorders” (Pharmacia Corporation, priority 2000, dated 2004).
Several values for one entry are separate records, joined by “and”; a condition that tells them apart may be missing. Equal values may be shown once. Entries after “also recorded” stand apart in the source; their conditions may differ.

Key:
[1] = system: osteopontin; assay: Assay A: immunostaining of hearts with osteopontin-specific antibody; type: in vivo, Male Wistar rats; conditions: angiotensin II-infused, saline-drinking rats; eplerenone 100 mpk; aldosterone replacement in adrenalectomized rats
Excerpt: Osteopontin (also known as early T-cell activation-1, Eta-1) is a secreted glycoprotein with pro-inflammatory characteristics that mediates chemoattraction, activation and migration of monocytes.

[2] = system: aldosterone infused rats; assay: Assay B, aldosterone infusion model: systolic blood pressure by radio-telemetry; type: in vivo, Male Sprague Dawley rats; conditions: 1% NaCl, uni-nephrectomized rats, eplerenone 100 mpk p.o., 4 weeks
Method: Human cardiovascular disorders are complex conditions, often initiated by vascular hypertension or a myocardial infarction (MI). In order to determine the probable effectiveness of a therapy for cardiovascular disorders, it is important to determine the potency of components in several assays. Accordingly, in Assay “A”, the efficacy of the aldosterone antagonist epeplerenone (epoxymexrenone) was determined in a hypertensive rat model with vascular inflammation, using angiotensin II infusion. In Assay “B” a study is described evaluating the efficacy of the aldosterone antagonist epeplerenone (epoxymexrenone) in a rat model using aldosterone infusion to produce hypertension with vascular inflammation. In Assay “C” a further study is described evaluating the efficacy of the aldosterone antagonist epeplerenone (epoxymexrenone) in a rat model using aldosterone infusion to produce hypertension with vascular inflammation. Assay B: In Vivo Aldosterone Infusion Model Male Sprague Dawley rats (n=39; BW=250 g) […] Uni-nephrectomy performed during implantation of mini-pumps 2. Aldosterone ([…], sc via alzet minipump) 2. […] 1. […] SBP measured by radio-telemetry probes inserted in the abdominal aorta

[3] = system: Atrial natriuretic factor (ANP); assay: Assay C: ANP mRNA in left ventricle by TaqMan RT-PCR; type: in vivo, Male Sprague-Dawley rats; conditions: for ANP mRNA: arbitrary units relative to cyclophilin expression; for ANP mRNA (AU): mean ± SEM after 30 days of treatment, eplerenone dose 100 mg/kg/day, relative to cyclophilin expression
Method: The procedure of Assay B was expanded upon in a further study. […] Myocardial tissue from animals in each treatment group was examined after 7, 14, or 30 days of treatment.
Potassium chloride supplementation was added to the saline solution in order to prevent the potential hypokalemia associated with aldosterone excess.
At the time of the surgery, an Alzet 2002 osmotic minipump (Alza Corp., Palo Alto, Calif.) containing either vehicle (9% ethanol/87% propylene glycol/4% dH2O) or 1.0 mg/mL d-aldosterone (Sigma Chemical, St. Louis, Mo.) was inserted subcutaneously at the nape of the neck. Aldosterone was administered at a dose of 0.75 µg/hour. […] Animals were sacrificed from each group (n=8-13) after 7, 14, or 30 days of treatment.
Following exsanguination, hearts and kidneys were isolated, removed, rinsed in cold phosphate-buffered saline, and blotted dry. Kidneys were immediately bifurcated through the long axis with a razor blade and placed in 10% neutral buffered formalin (NBF, Richard-Allen Scientific, Kalamazoo, Mich.). For the hearts, the right ventricle (RV) was cut away from the left ventricle (LV), both ventricles were weighed using a Mettler AE163 balance (Mettler-Toledo, Inc., Hightstown, N.J.), and the RV was placed in 10% NBF. A 2 mm coronal slab of the LV apex was removed and frozen with dry ice/isopentane for analysis of gene expression and the remaining portion of the LV was placed in 10% NBF for fixation. Final wet trimming was completed after 3-4 days fixation where a second 2 mm coronal slab was removed for hydroxyproline analysis and a third 2 mm slab was removed from the equatorial region for histology.
The fluorogenic 5′-nuclease assay (TaqMan PCR) using Applied Biosystems' 7700 Sequence Detection System (Applied Biosystems, Foster City, Calif.) allowed for real time detection/quantitation of a specific gene by monitoring the increase in fluorescence of a gene-specific, dye-labeled oligonucleotide probe. Probes for target and reference genes were labeled at the 5′-end with a 6-carboxyfluorescein (6FAM) reporter dye and at the 3′-end with a 6-carboxy-N,N,N′,N′-tetramethylrhodamine (TAMRA) quencher dye. When the probe was annealed to the target gene, fluorescence of 6FAM was prevented by the close proximity of TAMRA. The exonuclease activity of Taq polymerase released the dyes from the oligonucleotide probe by displacing the probe from the target sequence resulting in fluorescence excitation in direct proportion to the amount of target message present. Data analysis was performed using the Sequence Detection System software from Applied Biosystems.
Primers and probes were designed using Oligo Primer Analysis Software, Version 5.0 (National Biosciences Inc. (NBI)-Wojciech Rychlik, Cascade, Colo.). Primers were synthesized by Life Technologies (Grand Island, N.Y.) and probes were synthesized by Applied Biosystems. Primer/probe sets were designed from known sequences of rat genes to be analyzed. All target gene values were normalized to a reference gene, constitutively expressed cyclophilin. Primer/probe sets sequences can be found in Table 8
RNA was extracted from frozen (−70° C.) left ventricle (LV) tissue (approximately 10-20 mg) using 1.5 mL RNA-STAT 60 according to manufacturer's instructions (Leedo Medical Laboratories, Inc., Houston, Tex.). Briefly, tissues were homogenized using a tissue homogenizer equipped with a 5 mm probe (Ultra-Turrax T8 Homogenizer, IKA Works, Inc. Wilmington, N.C.). Following homogenization, an equal volume of molecular grade chloroform (Sigma Chemical Co., St. Louis, Mo.) was incubated with periodic mixing for 10 min at room temperature. Samples were centrifuged at 12,000 g for 10 min and RNA was precipitated from the top layer by adding an equal volume of molecular grade isopropanol (Sigma Chemical Co.) followed by an overnight incubation at −80° C.

[4] = system: hydroxyproline; assay: Assay C: myocardial hydroxyproline assay; type: in vivo, Male Sprague-Dawley rats
Method: The procedure of Assay B was expanded upon in a further study. […] Myocardial tissue from animals in each treatment group was examined after 7, 14, or 30 days of treatment. […] Lesions were preceded by the expression and progressive upregulation of proinflammatory molecules. […] Prior to surgery the animals were individually weighed and placed in one of the following groups: […] Potassium chloride supplementation was added to the saline solution in order to prevent the potential hypokalemia associated with aldosterone excess. […] Louis, Mo.) was inserted subcutaneously at the nape of the neck. Aldosterone was administered at a dose of 0.75 µg/hour. […] Animals were sacrificed from each group (n=8-13) after 7, 14, or 30 days of treatment. Following exsanguination, hearts and kidneys were isolated, removed, rinsed in cold phosphate-buffered saline, and blotted dry. […] Myocardial hydroxyproline concentration was measured by a […] assay that quantifies the reaction between oxidized hydroxyproline, and p-dimethylaminobenzaldehyde as described previously (4). […] Dried tissues and a positive collagen control (Bovine Collagen Type I, Sigma, St. […] T. Baker, Phillipsburg, N.J.) for 5 min at 25° C. […] Samples were incubated at 60° C. for 30 min, cooled to room temperature, and absorbance was monitored at 558 nm. Hydroxyproline content was quantitated from a freshly prepared standard curve of trans-4-hydroxy-L-proline (Sigma, St. Louis, Mo.). All samples and standards were performed in duplicate.

[5] = mean ± SEM after 7 days of treatment, eplerenone 100 mg/kg/day
[6] = mean ± SEM after 14 days of treatment, eplerenone 100 mg/kg/day
[7] = group mean, data used for Table 15 (14 days of treatment)
[8] = group mean, data used for Table 16 (30 days of treatment)
[9] = mean after 7 days of treatment, eplerenone dose 100 mg/kg/day
[10] = mean after 14 days of treatment, eplerenone dose 100 mg/kg/day
[11] = mean after 30 days of treatment, eplerenone dose 100 mg/kg/day

Compound | Osteopontin expression in the heart (immunostaining) [1] | Systolic Blood Pressure [2] | ANP mRNA [3, 5] | ANP mRNA [3, 6] | ANP mRNA (AU) [3] | Hydroxyproline [4, 7] | Hydroxyproline [4, 8] | Hydroxyproline [4, 9] | Hydroxyproline [4, 10] | Hydroxyproline [4, 11] | further results
C[C@]12CCC(=O)C=C1CC[C@@H]1[C@@H]2[C@@H](O)C[C@]2(C=O)[C@@H](C(=O)CO)CC[C@@H]12 [Aldosterone] | restored osteopontin expression | increased; also recorded: systolic blood pressure elevation | 8.72 ± 1.51 AU | 6.70 ± 1.59 AU | 20.17 ± 3.36 AU | 4.04 µg/mg | 4.39 µg/mg | 2.73 µg/mg | 4.04 µg/mg | 4.39 µg/mg | ANP ([3]; 14-day protocol, mRNA, individual rats and group Mean, listed as Aldosterone + salt): 4.58 AU and 7.75 AU and 7.34 AU and 4.18 AU and 1.59 AU and 17.81 AU and 6.48 AU and 8.08 AU and 2.51 AU; ANP ([3]; 14-day protocol, mRNA, individual rats and group Mean, listed as Aldosterone + salt, mean): 6.70 AU; ANP ([3]; 30-day protocol, mRNA, individual rats and group Mean, listed as Aldosterone + salt): 23.59 AU and 43.11 AU and 14.83 AU (2×) and 18.90 AU and 23.43 AU and 15.14 AU and 6.77 AU and 20.97 AU; ANP ([3]; 30-day protocol, mRNA, individual rats and group Mean, listed as Aldosterone + salt, group mean): 20.17 AU; ANP mRNA levels ([3]; aldosterone + salt vs vehicle + salt (Tables 11-13)): Significant elevations; Hydroxyproline ([4]; individual rats, data used for Table 15 (14 days of treatment), incl. rat marked * excluded from statistics, listed as Aldosterone + salt): 2.89 µg/mg and 2.91 µg/mg and 6.28 µg/mg and 5.63 µg/mg and 4.83 µg/mg and 5.64 µg/mg and 5.29 µg/mg and 2.76 µg/mg and 2.68 µg/mg and 2.60 µg/mg and 3.00 µg/mg and 3.99 µg/mg and 2.73 µg/mg; Hydroxyproline ([4]; individual rats, data used for Table 16 (30 days of treatment), incl. rat marked * excluded from statistics, listed as Aldosterone + salt): 7.24 µg/mg and 8.01 µg/mg and 3.62 µg/mg and 3.69 µg/mg and 4.00 µg/mg and 3.54 µg/mg and 3.07 µg/mg and 3.25 µg/mg and 3.09 µg/mg
COC(=O)[C@@H]1CC2=CC(=O)CC[C@]2(C)[C@@]23O[C@@H]2C[C@@]2(C)[C@@H](CC[C@@]24CCC(=O)O4)[C@H]13 [Eplerenone] | prevented osteopontin expression | significantly reduced, but did not normalize blood pressure | 2.77 ± 0.49 AU | 6.64 ± 2.22 AU | 9.20 ± 2.44 AU | 4.46 µg/mg | 4.10 µg/mg | 3.06 µg/mg | 4.46 µg/mg | 4.10 µg/mg | Systolic Blood Pressure ([2]; listed as eplerenone): depression of this elevation; ANP ([3]; 14-day protocol, mRNA, individual rats and group Mean, listed as Eplerenone + aldosterone + salt): 2.84 AU and 3.22 AU and 6.39 AU and 4.04 AU and 25.90 AU and 5.52 AU and 3.57 AU and 2.29 AU and 8.37 AU and 4.24 AU; ANP ([3]; 14-day protocol, mRNA, individual rats and group Mean, listed as Eplerenone + aldosterone + salt, mean): 6.64 AU; ANP mRNA upregulation ([3]; after 14 days of treatment, eplerenone 100 mg/kg/day): not after 14 days; ANP mRNA upregulation ([3]; after 30 days of treatment, eplerenone 100 mg/kg/day): significantly reduced; ANP ([3]; individual rats and group mean, 7 days of treatment, mRNA relative to cyclophilin, aldosterone + salt, eplerenone 100 mg/kg/day): 1.26 AU and 1.81 AU and 0.59 AU and 2.58 AU and 4.48 AU and 4.98 AU and 3.82 AU and 3.59 AU and 0.95 AU and 3.67 AU; ANP ([3]; individual rats and group mean, 7 days of treatment, mRNA relative to cyclophilin, aldosterone + salt, eplerenone 100 mg/kg/day, group mean): 2.77 AU; Hydroxyproline ([4]; individual rats, data used for Table 15 (14 days of treatment), incl. rat marked * excluded from statistics, listed as Eplerenone + aldosterone + salt): 2.95 µg/mg and 5.97 µg/mg and 6.52 µg/mg and 5.35 µg/mg and 6.80 µg/mg and 5.32 µg/mg and 2.72 µg/mg and 3.13 µg/mg and 2.41 µg/mg and 2.81 µg/mg and 5.03 µg/mg; Hydroxyproline ([4]; individual rats, data used for Table 16 (30 days of treatment), incl. rat marked * excluded from statistics, listed as Eplerenone + aldosterone + salt): 5.18 µg/mg and 6.11 µg/mg and 5.17 µg/mg and 6.40 µg/mg and 2.73 µg/mg and 2.84 µg/mg and 2.97 µg/mg and 2.82 µg/mg and 2.72 µg/mg and 5.75 µg/mg
